According to paper PMC8026769 (Molecular microbiology, 2020):

How the values were obtained:
[1] = target: T1, LpThi5 (LpThi5-His6; Lpg1565) (Legionella pneumophila, UniProt Q5ZV75)
[2] = target: T1, LpThi5 (LpThi5-His6; Lpg1565); remark: listed apart in the source

T1 sequence (Q5ZV75 whole entry, looked up): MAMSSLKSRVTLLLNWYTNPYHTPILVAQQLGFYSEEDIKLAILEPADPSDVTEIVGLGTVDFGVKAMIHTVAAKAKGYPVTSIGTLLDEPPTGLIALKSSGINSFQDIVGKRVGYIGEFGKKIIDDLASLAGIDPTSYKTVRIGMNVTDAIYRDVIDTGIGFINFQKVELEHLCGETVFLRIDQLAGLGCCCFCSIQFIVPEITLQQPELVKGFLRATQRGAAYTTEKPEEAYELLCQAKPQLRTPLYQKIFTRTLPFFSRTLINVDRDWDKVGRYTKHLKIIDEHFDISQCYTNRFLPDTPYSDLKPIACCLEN

SMILES | bioassay, HPLC and MALDI-TOF MS of released product [1] | PLP occupancy [2]
Cc1ncc(CO)c(N)n1 [HMP, 2-methyl-4-amino-5-hydroxymethylpyrimidine] | MALDI-TOF MS identified the active molecule as HMP | –
Cc1ncc(COP(=O)(O)O)c(C=O)c1O [PLP, pyridoxal-5’-phosphate] | – | 63 ± 2%
